# Measured values: article PMC7069095, “A cell-permeable peptide-based PROTAC against the oncoprotein CREPT proficiently inhibits pancreatic cancer” (Theranostics, 2020)
# Entries after “also recorded” stand apart in the source; their conditions may differ. Non-standard residues stand in square brackets, D forms with d. Residues, ends and D or L forms follow the SMILES beside them. Hyp = O=C(O)[C@@H]1C[C@@H](O)CN1; Ahx = NCCCCCC(=O)O
# Assays:
# [1] = molecular target: T1, endogenous CREPT protein in Panc-1 cells (Homo sapiens, UniProt Q9NQG5); assay: Western blot of endogenous CREPT (degradation); assay type: cell-based
# T1 construct: endogenous protein level of CREPT in Panc-1, AsPc-1 and MIA-PaCa-2 cells; endogenous in cells; host or cells: Panc-1, AsPc-1, MIA PaCa-2
# T1 sequence (Q9NQG5 1-326): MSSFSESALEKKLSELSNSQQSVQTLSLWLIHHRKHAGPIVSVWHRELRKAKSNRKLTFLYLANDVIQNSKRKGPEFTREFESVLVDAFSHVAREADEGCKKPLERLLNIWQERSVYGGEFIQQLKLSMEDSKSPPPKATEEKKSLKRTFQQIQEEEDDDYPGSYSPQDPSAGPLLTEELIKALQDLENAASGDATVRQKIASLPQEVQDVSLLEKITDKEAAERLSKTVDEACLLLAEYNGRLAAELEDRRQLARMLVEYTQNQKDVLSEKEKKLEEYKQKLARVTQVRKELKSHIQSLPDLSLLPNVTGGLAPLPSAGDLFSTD
# Experimental: (§1) For exogenous immunoprecipitation assays, HEK293T cells were plated in 60 mm dishes and then transfected with the indicated plasmids. After 24 h, cells were harvested using RIPA buffer (50 mM Tris-HCl pH 8.0, 2 mM EDTA pH 8.0, 150 mM NaCl, 1% NP-40, 0.5% sodium deoxycholate, 0.1% SDS) with mixed protease inhibitors. Cell lysates were incubated with 2 μg of the indicated antibodies and 30 μL of protein A/G-Sepharose beads at 4 °C overnight. Beads were eluted five times with lysis buffer (50 mM Tris-HCl pH 7.6, 1 mM EDTA pH 8.0, 165 mM NaCl, 0.5% NP-40), and thereafter, a western blot assay was performed to analyze the association by using the indicated antibodies. Western blot was performed as previously reported. Anti-β-actin and anti-Flag antibodies were purchased from Sigma. Anti-Myc antibody was purchased from Santa Cruz Biotechnology. Antibody against CREPT was produced in the laboratory.
# (§2) To address whether PRTC could induce CREPT degradation, we examined the endogenous protein level of CREPT in Panc-1, AsPc-1 and MIA-PaCa-2 cells in the presence of different dosages of PRTC. […] Consistently, treatment with PRTC led to decreases in CREPT protein at different times (Figure 5B, S3A). […] To further visualize the degradation process, we stained the endogenous CREPT protein with an antibody against CREPT in the cells treated with FITC-labeled PRTC.
# Figure 5 PRTC induces the ubiquitination and proteasome- dependent degradation of the endogenous CREPT protein. (A) Immunoblot of CREPT following 24 h incubation with different dosages of PRTC or PRTC-m in Panc-1 cells. (B) Immunoblot of CREPT exposed to 10 μM PRTC or PRTC-m for different times in Panc-1 cells. (C) Western blot analysis of CREPT following 24 h incubation with 10 μM PTRC in Panc-1 cells. MG132 is an inhibitor of proteasome activity. (D) Immunofluorescence visualization of Panc-1 cells after treatment with PRTC for 24 h. Cells were stained with anti-CREPT antibody. Scale bars, 20 μm.
# [2] = test system: Panc-1 cells; assay: Flow cytometry, entry of FITC-labeled peptides into cells; assay type: cell-based; details: conclusion from flow cytometry of FITC-labeled peptides in pancreatic cancer cells
# Experimental: To examine whether PRTC could permeate into pancreatic cancer cells, we synthesized fluorescein isothiocyanate (FITC) labeled PRTC, PRTC-m, PRTC-v, PRTC-r (PRTC without RRRRK) as well as TAT (a widely used cell penetrating peptide, as a positive control).
# Figure 3 Identification of the permeability of PRTC in Panc-1 cells. (A) Entry of FITC- labeled peptides into Panc-1 cells tested by flow cytometry. FITC-TAT is the positive control. Measurements were performed in triplicate. (B) Quantification of cellular uptake of Panc-1 cells treated with different concentrations of FITC-PRTC. (C) Confocal microscope images of Panc-1 cells treated with 10 μM FITC labeled peptides. Scale bars, 10 μm. (D) Confocal microscope images of Panc-1 cells treated with different dosages of FITC-PRTC. Scale bars, 10 μm.
# [3] = molecular target: T2, endogenous CREPT protein in AsPc-1 cells (Homo sapiens, UniProt Q9NQG5); assay: Western blot of endogenous CREPT (degradation); assay type: cell-based; details: 24 h incubation
# T2 construct: endogenous protein level of CREPT in Panc-1, AsPc-1 and MIA-PaCa-2 cells; endogenous in cells; host or cells: Panc-1, AsPc-1, MIA PaCa-2
# T2 sequence (Q9NQG5 1-326): T1 sequence (Q9NQG5 1-326)
# Experimental: as §1, §2
# Figure S3. PRTC induces CREPT degradation. […]
# [4] = test system: MIA PaCa-2 cells; assay: Colony formation; assay type: cell-based; details: 10 μM, than the control cells
# Experimental: (§3) Cells were seeded into 6-well plates (500 cells per well) and cultured for 10 days, then washed with PBS and stained with 0.1% crystal violet. The number of colonies was counted by ImageJ and presented as the mean ± standard deviation (SD) from three individual experiments. […]
# (§4) tumorigenesis in AsPc-1 and MIA PaCa-2 cells. (A-B) Colony formation of AsPc-1 respectively treated with deionized H2O (Ctrl), 10 μM PRTC, 10 μM PRTC-m and 10 μM PRTC-v. Cells were seeded into 6-well plates (500 cells per well) and cultured for 8 days.(C) CellproliferationassayofAsPc-1cellstreatedwith deionizedwater(Ctrl), 10μMPRTC,10μM PRTC-m and 10 μM PRTC-v.(D-E) Colony formation of MIA PaCa-2 respectively treated with deionized H2O (Ctrl), 10 μM PRTC, PRTC-m and PRTC-v.(F) Cell proliferation assay of MIA PaCa-2cells treatedwith deionizedH 2O(Ctrl),10μMPRTC, PRTC-mandPRTC-v. (G)Tumor volumesofxenografttumors,whichweremeasuredbycalipers. V=( a× b2)/2(V isvolume, a is the length of the tumor,b is the width of the tumor). (H) Cell proliferation assay of […]
# (§5) is anormal pancreatic epithelial cell line.
# (§6) (1 picture or pasted object on this page, not shown here)
# [5] = test system: AsPc-1 cells; assay: Colony formation; assay type: cell-based; details: 10 μM, 500 cells per well, 8 days, than the control cells
# Experimental: as §3, §4, §5, §6
# [6] = Body weight and toxicity in mice bearing xenograft tumors; assay type: in vivo, Balb/c nude mice; details: 10 mg/kg intraperitoneal, and HPDE6-C7 cells
# Experimental: (§7) For the xenograft model, 5×10^6 wild-type Panc-1 cells or CREPT knockout Panc-1 cells were subcutaneously injected into 4-week-old female Balb/c nude mice, which were purchased from Beijing Vital River Laboratory Animal Technology Co., Ltd. Each experimental group consisted of five mice. Mice bearing tumors were randomly divided into two groups and administered via intraperitoneal injection control solvent (0.9% saline) or PRTC (dissolved in 0.9% saline, 10 mg/kg) every 2 days for 4 weeks. The body weight of mice were measured every week after treated with 0.9% saline or PRTC. Tumor volume was measured by using the formula V = (a × b^2)/2 (V is volume, a is the length of the tumor, b is the width of the tumor).
# [7] = test system: Panc-1 xenograft tumors; assay: Xenograft tumor model; assay type: in vivo; details: female Balb/c nude mice, 10 mg/kg intraperitoneal every 2 days for 4 weeks, n=5, in comparison with control mice
# Experimental: as §7
structure (smiles),measurement,setting,value
CC[C@H](C)[C@H](N)C(=O)N[C@@H](Cc1ccc(O)cc1)C(=O)N1C[C@H](O)C[C@H]1C(=O)N[C@@H](C)C(=O)N[C@@H](CC(C)C)C(=O)NCCCCCC(=O)N[C@@H](CCCCN)C(=O)N[C@@H](CC(=O)O)C(=O)N[C@H](C(=O)N[C@@H](CC(C)C)C(=O)N[C@@H](CO)C(=O)N[C@@H](CCC(=O)O)C(=O)N[C@@H](CCCCN)C(=O)N[C@@H](CCC(=O)O)C(=O)N[C@@H](CCCCN)C(=O)N[C@@H](CCCCN)C(=O)N[C@@H](CC(C)C)C(=O)N[C@@H](CCC(=O)O)C(=O)N[C@@H](CCC(=O)O)C(=O)N[C@@H](Cc1ccc(O)cc1)C(=O)N[C@@H](CCCCN)C(=O)N[C@@H](CCC(N)=O)C(=O)N[C@@H](CCCCN)C(=O)N[C@@H](CC(C)C)C(=O)N[C@@H](C)C(=O)N[C@@H](CCCNC(=N)N)C(=O)N[C@H](C(=O)N[C@@H](CCCNC(=N)N)C(=O)N[C@@H](CCCNC(=N)N)C(=O)N[C@@H](CCCNC(=N)N)C(=O)N[C@@H](CCCNC(=N)N)C(=O)N[C@@H](CCCCN)C(=O)O)C(C)C)C(C)C [PRTC] (H-IY[Hyp]AL[Ahx]KDVLSEKEKKLEEYKQKLARVRRRRK-OH; N-terminus and C-terminus assumed),CREPT protein level at different times,[1]; 10 μM or 20 μM peptide,decreases
same,CREPT protein level upon different dosages,[1]; 24 h incubation,dramatically decreased
same,cell permeability,[2],strong cell permeability
same,CREPT protein level upon different dosages,[3],dramatically decreased
same,colony formation,[4],fewer colonies
same,colony formation,[5],fewer colonies
same,toxicity,[6],relatively low; also recorded: no toxicity
same,tumor weight and size,[7],significantly decreases
